Assay results from patent publication US10287305B2, “Substituted piperidine compound and use thereof” (Takeda Pharmaceutical Company Limited, priority 2016, dated 2019).

Target: human orexin type 2 receptor (hOX2R) (Homo sapiens (Human), UniProt O43614)
Assay: Measurement of orexin type 2 receptor agonist activity (Experimental Example 2-1, FLIPR TETRA, intracellular Ca2+);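 on Emax: Buffer-only well is 0% and 10 nM human orexin B is 100%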
Format: cell-based
Details: CHO dhfr- cells expressing hOX2R; for EC50: agonist activity, 10 nM human orexin B = 100%; for Emax at 30 µM: value at 30 uM concentration, orexin B as full agonist = 100%
Text: To obtain a cell clone stably expressing human orexin type 2 receptor, human orexin type 2 receptor cDNA was inserted into pcDNA3.1(+) plasmid vector (Invitrogen), and a plasmid DNA for expression of human orexin type 2 receptor (pcDNA3.1(+)/hOX2R) was cloned. The plasmid DNA was introduced into CHO-dhfr cell by an electroporation method, and human orexin type 2 receptor expressing clone cells were obtained by limiting dilution method by using G418 drug resistance as a selection marker.
Chinese hamster ovary (CHO) dhfr-cells forcibly expressing human orexin type 2 receptor (hOX2R) were seeded in each well of Black clear bottom plate (384 wells) (Becton, Dickinson and Company) by 10,000 cells, and cultured for 16 hr in an MEM-alpha (Nikken-Bio Co., Ltd.) medium containing 100 U/ml penicillin, 100 μg/ml streptomycin, […] G418 (all above Invitrogen), and 10% fetal calf serum (Thermo), under the conditions of 37° C., 5% CO2. […] A test compound was dissolved in dimethyl sulfoxide to 10 mM, and then diluted with assay buffer 2 (20 mM HEPES, Hanks' balanced salt solution (Invitrogen), 0.1% bovine serum albumin). For the reaction, a test compound solution (10 μL) was added using Fluorescent Imaging Plate Reader TETRA (FLIPR TETRA; manufactured by Molecular Devices), a fluorescence value (excitation wavelength 488 nm, measurement wavelength 570 nm) of each well was measured every one second for 1 min, and the agonist activity was determined using the area of the fluorescence value as an indicator of intracellular Ca^2+ concentration.

Sequence of human orexin type 2 receptor (hOX2R) (O43614 whole entry): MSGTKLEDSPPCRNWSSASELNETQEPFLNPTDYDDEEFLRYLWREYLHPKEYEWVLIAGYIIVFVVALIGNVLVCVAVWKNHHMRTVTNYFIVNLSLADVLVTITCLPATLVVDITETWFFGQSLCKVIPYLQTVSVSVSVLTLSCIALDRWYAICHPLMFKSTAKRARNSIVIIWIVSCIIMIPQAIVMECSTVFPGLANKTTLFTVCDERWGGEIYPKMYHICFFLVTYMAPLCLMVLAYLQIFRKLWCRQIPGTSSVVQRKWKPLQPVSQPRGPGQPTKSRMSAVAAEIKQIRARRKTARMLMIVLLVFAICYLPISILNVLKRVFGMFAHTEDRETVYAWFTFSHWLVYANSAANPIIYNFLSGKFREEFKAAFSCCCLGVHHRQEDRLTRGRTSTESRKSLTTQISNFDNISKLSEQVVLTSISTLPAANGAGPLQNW

Row | SMILES | EC50 | Emax at 30 µM
1 | CCCC(=O)N1CCC[C@H](NS(C)(=O)=O)[C@@H]1CO[C@H]1CC[C@@H](C(C)C)CC1 (relative stereo) [Example 35, N-(cis-1-butyryl-2-(((cis-4-isopropylcyclohexyl)oxy)methyl)piperidin-3-yl)methanesulfonamide] | 93 nM | 99%
2 | CC(C)[C@H]1CC[C@@H](OC[C@H]2[C@@H](NS(C)(=O)=O)CCCN2S(C)(=O)=O)CC1 (relative stereo) [Example 36, N-(cis-2-(((cis-4-isopropylcyclohexyl)oxy)methyl)-1-(methylsulfonyl)piperidin-3-yl)methanesulfonamide] |  | 74%
3 | CCS(=O)(=O)N[C@H]1CCCN(C(=O)Nc2ccccc2)[C@H]1CO[C@H]1CC[C@@H](C)CC1 (relative stereo) [Example 37, cis-3-((ethylsulfonyl)amino)-2-(((cis-4-methylcyclohexyl)oxy)methyl)-N-phenylpiperidine-1-carboxamide] | 880 nM | 97%
4 | CC(C)[C@H]1CC[C@@H](OC[C@H]2[C@@H](NS(C)(=O)=O)CCCN2C(=O)N2CCCC2)CC1 (relative stereo) [Example 39, N-(cis-2-(((cis-4-isopropylcyclohexyl)oxy)methyl)-1-(pyrrolidin-1-ylcarbonyl)piperidin-3-yl)methanesulfonamide] | 940 nM | 93%
5 | CC(C)[C@H]1CC[C@@H](OC[C@H]2[C@@H](NS(C)(=O)=O)CCCN2C(=O)N(C)C)CC1 (relative stereo) [Example 40, cis-2-(((cis-4-isopropylcyclohexyl)oxy)methyl)-N,N-dimethyl-3-((methylsulfonyl)amino)piperidine-1-carboxamide] | 720 nM | 91%
6 | CCOC(=O)N1CCC[C@H](NS(C)(=O)=O)[C@@H]1CO[C@H]1CC[C@@H](C(C)C)CC1 (relative stereo) [Example 42, ethyl cis-2-(((cis-4-isopropylcyclohexyl)oxy)methyl)-3-((methylsulfonyl)amino)piperidine-1-carboxylate] |  | 97%
7 | CC(C)[C@H]1CC[C@@H](OC[C@H]2[C@@H](NS(C)(=O)=O)CCCN2C(=O)Oc2ccccc2)CC1 (relative stereo) [Example 43, phenyl cis-2-(((cis-4-isopropylcyclohexyl)oxy)methyl)-3-((methylsulfonyl)amino)piperidine-1-carboxylate] | 1100 nM | 93%
8 | CC(C)[C@H]1CC[C@@H](OC[C@H]2[C@@H](NS(C)(=O)=O)CCCN2C(=O)COc2ccccc2)CC1 (relative stereo) [Example 44, N-(cis-2-(((cis-4-isopropylcyclohexyl)oxy)methyl)-1-(phenoxyacetyl)piperidin-3-yl)methanesulfonamide] | 1300 nM | 96%
9 | COCC(=O)N1CCC[C@H](NS(C)(=O)=O)[C@@H]1CO[C@H]1CC[C@@H](C(C)C)CC1 (relative stereo) [Example 45, N-(cis-2-(((cis-4-isopropylcyclohexyl)oxy)methyl)-1-(methoxyacetyl)piperidin-3-yl)methanesulfonamide] | 330 nM | 100%
10 | CC(=O)OCC(=O)N1CCC[C@H](NS(C)(=O)=O)[C@@H]1CO[C@H]1CC[C@@H](C(C)C)CC1 (relative stereo) [Example 47, 2-(cis-2-(((cis-4-isopropylcyclohexyl)oxy)methyl)-3-((methylsulfonyl)amino)piperidin-1-yl)-2-oxoethyl acetate] |  | 101%
11 | CC(C)[C@H]1CC[C@@H](OC[C@H]2[C@@H](NS(C)(=O)=O)CCCN2C(=O)C(C)(C)C)CC1 (relative stereo) [Example 53, N-(cis-1-(2,2-dimethylpropanoyl)-2-(((cis-4-isopropylcyclohexyl)oxy)methyl)piperidin-3-yl)methanesulfonamide] | 980 nM | 96%
12 | CC(C)[C@H]1CC[C@@H](OC[C@H]2[C@@H](NS(C)(=O)=O)CCCN2C(=O)CCc2ccccc2)CC1 (relative stereo) [Example 54, N-(cis-2-(((cis-4-isopropylcyclohexyl)oxy)methyl)-1-(3-phenylpropanoyl)piperidin-3-yl)methanesulfonamide] | 4100 nM | 88%
13 | COC(=O)CCC(=O)N1CCC[C@H](NS(C)(=O)=O)[C@@H]1CO[C@H]1CC[C@@H](C(C)C)CC1 (relative stereo) [Example 55, methyl 4-(cis-2-(((cis-4-isopropylcyclohexyl)oxy)methyl)-3-((methylsulfonyl)amino)piperidin-1-yl)-4-oxobutanoate] | 140 nM | 97%
14 | CC(C)[C@H]1CC[C@@H](OC[C@H]2[C@@H](NS(C)(=O)=O)CCCN2C(=O)C2CCOCC2)CC1 (relative stereo) [Example 60, N-(cis-2-(((cis-4-isopropylcyclohexyl)oxy)methyl)-1-(tetrahydro-2H-pyran-4-ylcarbonyl)piperidin-3-yl)methanesulfonamide] | 140 nM | 101%
15 | CC(C)[C@H]1CC[C@@H](OC[C@H]2[C@@H](NS(C)(=O)=O)CCCN2S(=O)(=O)C2CC2)CC1 (relative stereo) [Example 62, N-(cis-1-(cyclopropylsulfonyl)-2-(((cis-4-isopropylcyclohexyl)oxy)methyl)piperidin-3-yl)methanesulfonamide] | 2300 nM | 93%
16 | Cc1nc(S(=O)(=O)N2CCC[C@H](NS(C)(=O)=O)[C@@H]2CO[C@H]2CC[C@@H](C(C)C)CC2)cn1C (relative stereo) [Example 65, N-(cis-1-((1,2-dimethyl-1H-imidazol-4-yl)sulfonyl)-2-(((cis-4-isopropylcyclohexyl)oxy)methyl)piperidin-3-yl)methanesulfonamide] | 1300 nM | 95%
17 | CC(C)[C@H]1CC[C@@H](OC[C@H]2[C@@H](NS(C)(=O)=O)CCCN2S(=O)(=O)c2cccnc2)CC1 (relative stereo) [Example 66, N-(cis-2-(((cis-4-isopropylcyclohexyl)oxy)methyl)-1-(pyridin-3-ylsulfonyl)piperidin-3-yl)methanesulfonamide] | 3800 nM | 87%
18 | CC(C)[C@H]1CC[C@@H](OC[C@H]2[C@@H](NS(C)(=O)=O)CCCN2S(=O)(=O)c2cnn(C)c2)CC1 (relative stereo) [Example 67, N-(cis-2-(((cis-4-isopropylcyclohexyl)oxy)methyl)-1-((1-methyl-1H-pyrazol-4-yl)sulfonyl)piperidin-3-yl)methanesulfonamide] |  | 93%
19 | CC(C)[C@H]1CC[C@@H](OC[C@H]2[C@@H](NS(C)(=O)=O)CCCN2C(=O)CCO)CC1 (relative stereo) [Example 72, N-(cis-1-(3-hydroxypropanoyl)-2-(((cis-4-isopropylcyclohexyl)oxy)methyl)piperidin-3-yl)methanesulfonamide] | 89 nM | 96%
20 | CC(C)[C@H]1CC[C@@H](OC[C@H]2[C@@H](NS(C)(=O)=O)CCCN2C(=O)CC(C)(C)O)CC1 (relative stereo) [Example 73, N-(cis-1-(3-hydroxy-3-methylbutanoyl)-2-(((cis-4-isopropylcyclohexyl)oxy)methyl)piperidin-3-yl)methanesulfonamide] | 560 nM | 92%
21 | CC(C)[C@H]1CC[C@@H](OC[C@H]2[C@@H](NS(C)(=O)=O)CCCN2C(=O)CCS(C)(=O)=O)CC1 (relative stereo) [Example 74, N-(cis-2-(((cis-4-isopropylcyclohexyl)oxy)methyl)-1-(3-(methylsulfonyl)-propanoyl)piperidin-3-yl)methanesulfonamide] | 750 nM | 89%
22 | CC(=O)CCC(=O)N1CCC[C@H](NS(C)(=O)=O)[C@@H]1CO[C@H]1CC[C@@H](C(C)C)CC1 (relative stereo) [Example 75, N-(cis-2-(((cis-4-isopropylcyclohexyl)oxy)methyl)-1-(4-oxopentanoyl)piperidin-3-yl)methanesulfonamide] |  | 88%
23 | CC(=O)N1CCC[C@H](NS(=O)(=O)C(C)C)[C@@H]1CO[C@H]1CC[C@@H](C(C)C)CC1 (relative stereo) [Example 76, N-(cis-1-acetyl-2-(((cis-4-isopropylcyclohexyl)oxy)methyl)piperidin-3-yl)propane-2-sulfonamide] | 300 nM | 103%
24 | CCCS(=O)(=O)N[C@H]1CCCN(C(C)=O)[C@H]1CO[C@H]1CC[C@@H](C(C)C)CC1 (relative stereo) [Example 77, N-(cis-1-acetyl-2-(((cis-4-isopropylcyclohexyl)oxy)methyl)piperidin-3-yl)propane-1-sulfonamide] | 1000 nM | 91%
25 | CC(=O)N1CCC[C@H](NS(=O)(=O)N(C)C)[C@@H]1CO[C@H]1CC[C@@H](C(C)C)CC1 (relative stereo) [Example 78, N′-(cis-1-acetyl-2-(((cis-4-isopropylcyclohexyl)oxy)methyl)piperidin-3-yl)-N,N-dimethylsulfuric diamide] | 63 nM | 91%
